Data taken from PubChem BioAssay (NCI).
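GI50: concentration for 50% inhibition of growth. Definition used: TGI = concentration required for complete inhibition of growth.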

Legend:
Assay in all cases: NCI tumour cell line growth inhibition, 384-well format
786-0 renal = system: 786-0 renal
A498 renal = system: A498 renal
A549 NSCLC = system: A549 NSCLC
ACHN renal = system: ACHN renal
CAKI-1 renal = system: CAKI-1 renal
EKVX NSCLC = system: EKVX NSCLC
HCT-116 colon = system: HCT-116 colon
HCT-15 colon = system: HCT-15 colon
HOP-62 NSCLC = system: HOP-62 NSCLC
HOP-92 NSCLC = system: HOP-92 NSCLC
IGROV1 ovarian = system: IGROV1 ovarian
K-562 leukemia = system: K-562 leukemia
KM12 colon = system: KM12 colon
LOX IMVI melanoma = system: LOX IMVI melanoma
MCF7 breast = system: MCF7 breast
MDA-MB-231 breast = system: MDA-MB-231 breast
NCI-H226 lung = system: NCI-H226 lung
NCI-H322M lung = system: NCI-H322M lung
NCI-H460 NSCLC = system: NCI-H460 NSCLC
NCI/ADR-RES ovarian = system: NCI/ADR-RES ovarian
OVCAR-3 ovarian = system: OVCAR-3 ovarian
OVCAR-4 ovarian = system: OVCAR-4 ovarian
OVCAR-5 ovarian = system: OVCAR-5 ovarian
OVCAR-8 ovarian = system: OVCAR-8 ovarian
PC-3 prostate = system: PC-3 prostate
RXF 393 renal = system: RXF 393 renal
SF-268 CNS = system: SF-268 CNS
SF-295 CNS = system: SF-295 CNS
SF-539 CNS = system: SF-539 CNS
SK-OV-3 ovarian = system: SK-OV-3 ovarian
SN12C renal = system: SN12C renal
SNB-19 CNS = system: SNB-19 CNS
TK-10 renal = system: TK-10 renal
U251 glioblastoma = system: U251 glioblastoma
UACC-62 melanoma = system: UACC-62 melanoma
UO-31 renal = system: UO-31 renal

SMILES: CC(=O)O[C@H]1C(=O)[C@@]2(C)[C@H]([C@H](OC(=O)c3ccccc3)[C@]3(O)C[C@H](OC(=O)[C@H](O)[C@@H](NC(=O)c4ccccc4)c4ccccc4)C(C)=C1C3(C)C)[C@]1(OC(C)=O)CO[C@@H]1C[C@@H]2O
- GI50 ([…]-0 renal): 0.0191 µM
- TGI (786-0 renal): > 54.4 µM
- GI50 (A498 renal): 0.0265 µM
- TGI (A498 renal): 36.3 µM
- TGI (A549 NSCLC): > 46.4 µM
- GI50 (ACHN renal): 0.0611 µM
- TGI (ACHN renal): 45.8 µM
- GI50 (CAKI-1 renal): 0.0507 µM
- TGI (CAKI-1 renal): > 100 µM
- GI50 (EKVX NSCLC): 0.039 µM
- TGI (EKVX NSCLC): > 31.6 µM
- TGI (HCT-116 colon): > 100 µM
- GI50 (HCT-15 colon): 0.0889 µM
- TGI (HCT-15 colon): 25 µM
- TGI (HOP-62 NSCLC): 14.7 µM
- TGI (HOP-92 NSCLC): 28 µM
- TGI (IGROV1 ovarian): > 67.9 µM
- TGI (K-562 leukemia): < 0.013 µM
- TGI (KM12 colon): > 100 µM
- TGI (LOX IMVI melanoma): 37.3 µM
- TGI (MCF7 breast): > 46.2 µM
- TGI (MDA-MB-231 breast): 22.7 µM
- GI50 (NCI-H226 lung): 0.745 µM
- TGI (NCI-H226 lung): 19.2 µM
- GI50 (NCI-H322M lung): 0.014 µM
- TGI (NCI-H322M lung): > 100 µM
- TGI (NCI-H460 NSCLC): < 0.013 µM
- GI50 (NCI/ADR-RES ovarian): 3.1 µM
- TGI (NCI/ADR-RES ovarian): 9.24 µM
- TGI (OVCAR-3 ovarian): 0.144 µM
- TGI (OVCAR-4 ovarian): > 69.5 µM
- TGI (OVCAR-5 ovarian): > 83.8 µM
- TGI (OVCAR-8 ovarian): 0.0102 µM
- TGI (PC-3 prostate): > 100 µM
- GI50 (RXF 393 renal): < 0.0116 µM
- TGI (RXF 393 renal): 0.022 µM
- TGI (SF-268 CNS): 31.4 µM
- GI50 (SF-295 CNS): 0.0114 µM
- TGI (SF-295 CNS): 0.0364 µM
- TGI (SF-539 CNS): 0.0123 µM
- TGI (SK-OV-3 ovarian): > 31.6 µM
- TGI (SN12C renal): 99.9 µM
- TGI (SNB-19 CNS): > 71.1 µM
- GI50 (TK-10 renal): 0.0337 µM
- TGI (TK-10 renal): 28 µM
- TGI (U251 glioblastoma): > 31.6 µM
- TGI (UACC-62 melanoma): 18.8 µM
- GI50 (UO-31 renal): 0.348 µM
- TGI (UO-31 renal): > 69.3 µM
